# Laboratory results: patent publication US7737128B2, “Pyrimidines, such as uridine, in treatments for patients with bipolar disorder” (The McLean Hospital Corporation, priority 2004, dated 2010)
# Read-outs that look alike come from different tables or passages of the source.
# Tests used:
# [1] = uridine infusion, cited from earlier work
# [2] = cited from earlier work
# [3] = in vivo; cited from earlier work
# [4] = oral, cited from earlier work
# [5] = in vivo; details: both sexes, Crl: CD (SD)IGS BR, rat, po
# Experimental: RG2133 has been tested in a repeat dose rodent toxicity and toxicokinetic study. Three groups of ten male and ten female rats (Crl: CD® (SD)IGS BR strain) received RG2133 orally, by gavage, at dosages of 300, 1000, or 2000 mg/kg/day (administered as 150, 500, or 1000 mg/kg b.i.d.) in aqueous 1% carboxymethylcellulose with methyl paraben (at 1.8 g/l) and propyl paraben (at 0.2 g/l) for four weeks. Animals were examined by observation and lab analysis of blood and urine for evidence of toxicity, and results are shown in Table 1. Tissues were examined microscopically for evidence of drug related toxicity. […] The no-observed-adverse-effect-level (NOAEL) was considered to be 2000 mg/kg/day (1000 mg/kg b.i.d.).
# [6] = tested on: blood lactate levels; assay: Plasma lactate elevation after oral gavage (stress response) during repeat dose toxicology study; type: in vivo, rats; details: rat plasma lactate
# [7] = tested on: patients with bipolar disorder; assay: Adverse events in the 6-week patient study; type: in vivo, human
# Text: The total number of adverse events is reported by the number and percentage of subjects experiencing each adverse event. If a subject reported the same adverse event over the course of the study, that event was counted once.
# During the course of the 6-week study, there were some reported side effects to the medication. 1 subject reported stomach cramps, 1 reported nausea, 4 reported decreased appetite, 3 reported an increase in constipation, 4 reported diarrhea, 1 reported muscle cramps, 2 reported headaches, 1 reported fatigue, 2 reported problems with sleeping, 2 reported increased flatulence, and 1 reported a decrease in libido. In addition, one subject reported changes in their vision that affected their depth perception. […] The subject independently decided to increase their dose back to its original amount in response to their manic reaction to the decreased dose. Due to this protocol deviation, and the subject's manic break, the subject was terminated from the study.
# [8] = tested on: fluorouracil toxicity; details: cited from earlier work
# [9] = metabolites, not the prodrug, are observed in blood; cited from earlier work
# [10] = tested on: patients with bipolar disorder; assay: Phase I 6-week open-label clinical trial in outpatients with bipolar disorder (rating scales, patient histories)
# Text: The new methods are based on a Phase I open-label clinical trial of RG2133, a prodrug of uridine, designed to assess the impact of uridine in patients with bipolar disorder. […] The trial assessed the impact of daily, oral administration of escalating doses of RG2133 over a 6 week period on the symptoms associated with bipolar disorder, which are not adequately treated with existing drugs including SSRIs such as Prozac® or Zoloft®. The trial included 11 patients.
# Outpatients with bipolar disorder were recruited for this 6-week open-label study. Patients' daily dose amounts were divided into three daily doses. Subjects received an initial RG2133 dose of 6 g/day. […] Subjects were monitored for changes in mood using standard rating scales. The subjects' physical status was followed clinically and with standard laboratory measures to monitor for any adverse effects and/or toxicity.
# During the baseline visit, a detailed psychiatric and medical history was obtained, and the following standard rating scales were performed: Structured Clinical Interview for DSM-IV (SCID) for diagnosis, Young Mania Rating Scale (YMRS), Montgomery-Asberg Depression rating Scale (MADRS), the Hamilton Anxiety Scale (HAMA), Clinical Global Impression scale (CGI), the Global Assessment of Function (GAF) scale, quality of life scale (SF-36), as well as a brief adverse-effect rating scale.
# After the baseline evaluation, patients returned for office visits at weeks 1, 2, 3, 4, and 6. The same rating scales were performed at each follow-up office visit, except for the SCID. Instead of the full SCID at the follow-up visits, only the SCID screening questions for mania and depression were performed to aid in the determination of syndromic recovery or recurrence. In addition, patients maintained a daily Mood Diary, which was reviewed at each study visit to elicit symptom recall. Routine clinical and laboratory evaluations of each patient's physical status occurred at baseline and at regular intervals. Subjects were monitored for changes in mood using standard rating scales. The subjects' physical status was followed clinically and with standard laboratory measures to monitor for any adverse effects and/or toxicity.
# During the study patients were evaluated using the Montgomery-Asberg Depression Rating Scale (MADRS). This scale measures the effect of treatment on depression severity relative to a baseline assessment before treatment. The MADRS measures the severity of a number of symptoms on a scale from 0 to 60, including mood and sadness, tension, sleep, appetite, energy, concentration, suicidal ideation, and restlessness. Increasing scores reflect a greater severity of depression. Scores of 15-25 on the MADRS scale indicate moderate depression. Scores above 25 indicate clinically severe depression.
# During the study patients were also evaluated using the Young Mania Rating Scale (YMRS). This scale assesses the severity of mania in patients already diagnosed with mania based on a personal interview. Scores of 1 to 12 are not considered to be suffering from mania, whereas a score of 13 indicates minimal mania. Increasing scores to 44, indicate progressively severe mania.
# During the study patients were also evaluated using Clinical Global Impression (CGI) scale. A clinician rated the severity of the patient's illness relative to the clinician's past experience with patients with the same diagnosis. At the outset of the study a clinician created a baseline single item score on a 7 point scale from 1 (‘normal’, not ill) to 7 (extremely ill). CGI was then used to track the clinical distance between a patient's individual's current condition and his or her baseline condition at the start of treatment.
# During the study patients were evaluated using Global Assessment of Functioning (GAF), which is a modified version of the Global Assessment Scale (GAS).
# [11] = bipolar patients, daily oral escalating doses, 6 weeks
compound,measurement,setting,value
O=c1ccn([C@@H]2O[C@H](CO)[C@@H](O)[C@H]2O)c(=O)[nH]1 [uridine],Plasma concentrations above baseline values,[1]; baseline 3 μM,> 100 fold
same,Observed side effect,[1],fever
same,Effect of higher dosages,"[2]; above 1000 mg/kg/day, some patients",mild diarrhea
same,Dosages with no known toxic effects,"[2]; pure uridine, long-term experience",up to 1000 mg/kg/day
same,volume distribution,[3],around 0.634 liters/kg
same,Reported effects,[4]; 10 or 12 g/m^2,cramps and diarrhea
same,maximum tolerated dose without side effects,[4]; multiple dosing every 6 hours,5 g/m^2
same,Reported effects,[4]; repeat doses every 6 hours of 8 g/m^2,diarrhea
same,maximum tolerated dose without side effects,[4]; single dose,10 g/m^2
same,Bioavailability,[4],5.8-9.9%
same,Doses at which no toxicity was observed,[4],≤ 8 g/m^2
same,peak plasma levels of uridine,[4],80 µM
"CC(=O)OC[C@H]1O[C@@H](n2ccc(=O)[nH]c2=O)[C@H](OC(C)=O)[C@@H]1OC(C)=O [RG2133, 2′,3′,5′-tri-O-acetyluridine]",NOAEL at 28 days,[5],2000 mg/kg/day
same,Effect on lactate level relative to normal baseline value (2.4 mM),[6],did not reduce the lactate level below the normal baseline value
same,Subjects reporting a decrease in libido,[7]; 6-week study,1
same,Subjects reporting an increase in constipation,[7]; 6-week study,3
same,Subjects reporting changes in vision that affected depth perception,[7]; 6-week study,one
same,Subjects reporting decreased appetite,[7]; 6-week study,4
same,Subjects reporting diarrhea,[7]; 6-week study,4
same,Subjects reporting fatigue,[7]; 6-week study,1
same,Subjects reporting headaches,[7]; 6-week study,2
same,Subjects reporting increased flatulence,[7]; 6-week study,2
same,Subjects reporting muscle cramps,[7]; 6-week study,1
same,Subjects reporting nausea,[7]; 6-week study,1
same,Subjects reporting problems with sleeping,[7]; 6-week study,2
same,Subjects reporting stomach cramps,[7]; 6-week study,1
same,Subjects reporting weaker vision,[7]; 6-week study,Another subject
same,Subjects reporting a manic episode,"[7]; week 3, after reducing the dose",One
same,Effect on hematologic toxicities associated with fluorouracil,[8]; 6 g/dose every 6 hours,reduction in hematologic toxicities
same,Adverse effect seen,"[8]; cancer patients, toxicity evaluation equivocal because of cancer and fluorouracil toxicities",Diarrhea
same,peak blood uridine levels,"[8]; suspension and tablet forms, 6 g/dose every 6 hours for 9 doses",167 µM
same,Metabolism of enteral dosages,[9],rapidly metabolized to uridine and uracil
same,Individual patient: mania-type event,"[10]; Patient #3, bipolar II, on antidepressant, 12 g/day",slight hypomania at week three
same,Individual patient: reported mood,"[10]; Patient #4, bipolar I, on antidepressant, 6 to 12 g/day",feeling stable
same,Individual patient: mood at end of study,"[10]; Patient #4, week six",mood deteriorated at week six
same,Individual patient: mania-type event,"[10]; Patient #4, week three",some hypomania at week three
same,Individual patient: reported mood,"[10]; Patient #5, bipolar I, no antidepressant, 6 g/day",significant change in mood at week one
same,Individual patient: adverse effect,[10]; Patient #6,some eye pain
same,Individual patient: reported mood,"[10]; Patient #6, no antidepressant, 6 g/day",feeling significantly better than they had in two years
same,Individual patient: reported mood,"[10]; Patient #7, bipolar I, on antidepressant, 6 to 18 g/day",no change in mood
same,Individual patient: adverse event,[10]; Patient #11,severe bout of colitis
same,Individual patient: bipolar symptoms,"[10]; Patient #11, bipolar II, on antidepressant, 12 g/day",complete remission at week four
same,Individual patient: adverse effect,[10]; Patient #13,slight change in depth perception leading to two falls
same,Individual patient: reported mood,"[10]; Patient #13, bipolar I, no antidepressant, 6 to 9 g/day",feeling less depressed and more hopeful
same,Individual patient: complaints,"[10]; Patient #15, after three weeks","dizziness spells, constipation, and a reported manic episode"
same,Individual patient: reported mood,"[10]; Patient #15, bipolar II, no antidepressant, 6 to 12 g/day",feeling less volatile and fewer mood swings
same,Individual patient: complaints,[10]; Patient #16,loose stools and increased flatulence
same,Individual patient: reported mood,"[10]; Patient #16, bipolar II, on antidepressant, 6 to 12 g/day",no change in mood
same,Individual patient: complaints,[10]; Patient #17,loose stools and increased flatulence
same,Individual patient: reported mood,"[10]; Patient #17, bipolar II, on antidepressant, 6 to 12 g/day",no change in mood
same,Average GAF score,[10]; after week four (FIG. 4),declined to a level slightly above the initial GAF score
same,Average GAF score,[10]; beginning of the study to week four (FIG. 4),improved slightly
same,Average MADRS scores,[10]; between week three and week six (FIG. 1),rose slightly
same,Induction of mania,[10]; [11],did not induce mania
same,Safety of administration,[10]; [11],safe
same,Average female CGI scores,"[10]; course of the study relative to initial score, unlike male scores (FIG. 7)",improved
same,Averaged YMRS scores,[10]; during the course of the study (FIG. 2),slight decrease
same,Average HAM-A score,[10]; during the course of the study (FIG. 5),went down slightly
same,Female YMRS scores vs initial baseline,[10]; during the study (FIG. 6),did not increase above the initial baseline score
same,Average CGI score,[10]; end of the study vs baseline (FIG. 3),somewhat above baseline
same,Average MADRS scores,[10]; first three weeks of treatment (FIG. 1),slight decrease
same,"Average YMRS, female patients","[10]; first three weeks, female vs male (FIG. 6)",declined slightly more than males
same,"Average CGI scores, patients not taking antidepressant",[10]; vs patients on antidepressant medication (FIG. 8),faster decline
same,CGI,[10]; weeks one to three (FIG. 3),improved slightly
same,CGI,[10]; weeks three to six (FIG. 3),deteriorated slightly
same,Effect on patients' depression (MADRS),[10]; whole study,did not significantly worsen patients' depression
